The values that follow come from patent US20230075422A1, “USE OF FUCOSYLATION INHIBITOR FOR PRODUCING AFUCOSYLATED ANTIBODY” (BRISTOL-MYERS SQUIBB COMPANY, priority 2019, published 2023).

Holding throughout (assay type): cell-based
Assay [1] has as its system antibody production cell line. As to the kind of experiment: Antibody titers of the same antibody preparations (FIG. 2B). The conditions noted are these: same preparations as FIG. 2A, inhibitor 1 mM to 6 mM, compared with GDP-D-rhamnose.
The subject of assay [2] is fucosylation of antibodies. As to the kind of experiment: Percentage of nonfucosylated antibodies for antibodies grown in the presence of fucosylation inhibitors (FIG. 2A). The conditions noted are these: antibodies grown in presence of inhibitor at 1 mM to 6 mM. As for the experimental part:
The level of fucosylation in an antibody preparation may be determined by any method known in the art, including but not limited to gel electrophoresis, liquid chromatography, and mass spectrometry. Unless otherwise indicated, for the purposes of the present invention, the level of fucosylation in an antibody preparation is determined by hydrophilic interaction chromatography (or hydrophilic interaction liquid chromatography, HILIC), essentially as described at Example 2. To determine the level of fucosylation of an antibody preparation, samples are denatured treated with PNGase F to cleave N-linked glycans, which are then analyzed for fucose content. LC/MS of full-length antibody chains is an alternative method to detect the level of fucosylation of an antibody preparation, but mass spectroscopy is inherently less quantitative.
Nonfucosylated antibody preparations may be analyzed to determine the percentage of afucosylated heavy chains essentially as follows.
Antibodies are first denatured using urea and then reduced using DTT (dithiothreitol). Samples are then digested overnight at 37° C. with PNGase F to remove N-linked glycans. […] The resulting labeled glycans are then resolved on a HILIC column and the eluted fractions are quantified by fluorescence and dried. […] Untreated samples and BKF-treated samples are then analyzed by liquid chromatography. […]

Assay [3] has as its system fucosylation of antibodies. The experiment in a line: Electropherograms of antibody preparations, glycoform peaks (FIGS. 3A-3C). The conditions noted are these: cells cultured with 6 mM or 10 mM inhibitor vs no inhibitor. The method, then:
FIGS. 3A, 3B and 3C show electropherograms of antibody preparations made using cells cultured without a fucosylation inhibitor or in the presence of 6 mM or 10 mM Ac-GDP-D-rhamnose, respectively. Peaks for different glycoforms are indicated, with white boxes for fucosylated species and dark boxes for nonfucosylated species.

For Ac-GDP-D-rhamnose, in assay [1], the “antibody titer (yield)” value was “less deleterious effect on titer”. In addition, the “percentage of nonfucosylated antibodies” value in assay [2] is “as effective as GDP-D-rhamnose”. Also, the “proportion of nonfucosylated species (glycoforms)” value in assay [3] was “increase the proportion of nonfucosylated species”.
As for `C[C@H]1O[C@H](OP(=O)(O)OP(=O)(O)OC[C@H]2O[C@@H](n3cnc4c(=O)[nH]c(N)nc43)[C@H](O)[C@@H]2O)[C@@H](O)[C@@H](O)[C@@H]1O` [GDP-D-rhamnose], in assay [2], the “percentage of nonfucosylated antibodies” value is reported as “increasing the percentage of nonfucosylated antibodies”.
